Values of other authors, collected in patent US20250302824A1, “IN SITU READY-TO-USE INJECTION FORMULATIONS OF POSACONAZOLE FREE OF CYCLODEXTRIN AND ITS DERIVATIVES” (Hefei Cosource Pharmaceuticals Co., Ltd, priority 2024, published 2025).
Converted amounts (≈) assume the structure as drawn. Read-outs that look alike come from different tables or passages of the source.

CC[C@@H]([C@H](C)O)n1ncn(-c2ccc(N3CCN(c4ccc(OC[C@@H]5CO[C@@](Cn6cncn6)(c6ccc(F)cc6F)C5)cc4)CC3)cc2)c1=O [Posaconazole]
solubility (at pH 1): 800 µg/mL (≈ 1140 µM)
solubility (in neutral and alkaline solutions): less than 1 μg/ml
